Test [1] has as its target T1, Muscarinic acetylcholine receptor M4 (Homo sapiens) (UniProt P08173).
T1 sequence (whole entry): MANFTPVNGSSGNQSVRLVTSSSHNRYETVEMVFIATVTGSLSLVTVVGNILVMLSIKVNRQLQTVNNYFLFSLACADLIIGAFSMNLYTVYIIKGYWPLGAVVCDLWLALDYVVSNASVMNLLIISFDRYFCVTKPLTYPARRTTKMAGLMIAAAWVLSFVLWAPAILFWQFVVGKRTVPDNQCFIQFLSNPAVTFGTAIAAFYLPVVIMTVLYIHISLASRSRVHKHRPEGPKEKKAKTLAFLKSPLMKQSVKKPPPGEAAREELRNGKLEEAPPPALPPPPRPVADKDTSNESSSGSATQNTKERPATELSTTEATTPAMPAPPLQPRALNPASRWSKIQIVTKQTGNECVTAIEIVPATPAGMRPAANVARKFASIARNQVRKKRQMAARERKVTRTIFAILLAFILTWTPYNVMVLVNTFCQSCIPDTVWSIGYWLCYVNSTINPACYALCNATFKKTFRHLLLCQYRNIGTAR
Description: Logarithm of affinity (log 1/M) at the (N-methyl Scopolamine) NMS-liganded muscarinic acetylcholine receptor M4 by using semiquantitative equilibrium and off-rate assay.

The target of test [2] is T2, Muscarinic acetylcholine receptor M1 (Homo sapiens) (UniProt P11229).
T2 sequence (whole entry): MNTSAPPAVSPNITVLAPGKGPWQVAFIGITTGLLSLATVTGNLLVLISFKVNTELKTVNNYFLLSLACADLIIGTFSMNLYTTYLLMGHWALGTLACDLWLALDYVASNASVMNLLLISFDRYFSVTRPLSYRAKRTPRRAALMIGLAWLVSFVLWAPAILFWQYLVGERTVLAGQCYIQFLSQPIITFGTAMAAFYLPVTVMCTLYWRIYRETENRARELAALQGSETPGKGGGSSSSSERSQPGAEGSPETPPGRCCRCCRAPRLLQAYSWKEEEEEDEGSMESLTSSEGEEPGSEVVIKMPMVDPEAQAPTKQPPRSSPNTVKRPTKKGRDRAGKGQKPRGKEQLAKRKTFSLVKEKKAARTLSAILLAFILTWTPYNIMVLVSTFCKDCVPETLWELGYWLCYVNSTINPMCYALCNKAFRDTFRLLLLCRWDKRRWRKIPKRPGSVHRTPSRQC
Description: Subtype selectivity and the cooperativity with N-methyl Scopolamine (NMS) at Muscarinic acetylcholine receptor M1.

In test [3] the target is T2, Muscarinic acetylcholine receptor M1 (Homo sapiens). Description: Logarithm of affinity (log 1/M) at the free muscarinic acetylcholine receptor M1 by using semiquantitative equilibrium and off-rate assay.
The target is the same in test [4]. Description: Logarithm of affinity (log 1/M) at the (N-methyl Scopolamine) NMS-liganded muscarinic acetylcholine receptor M1 by using semiquantitative equilibrium and off-rate assay.
The target of test [5] is Muscarinic acetylcholine receptor M3 (Homo sapiens) (UniProt P20309). Description: Subtype selectivity and the cooperativity with N-methyl Scopolamine (NMS) at muscarinic acetylcholine receptor M3; Activity range is 0.2-0.8.
Muscarinic acetylcholine receptor M3 (Homo sapiens), sequence (P20309 whole entry, looked up): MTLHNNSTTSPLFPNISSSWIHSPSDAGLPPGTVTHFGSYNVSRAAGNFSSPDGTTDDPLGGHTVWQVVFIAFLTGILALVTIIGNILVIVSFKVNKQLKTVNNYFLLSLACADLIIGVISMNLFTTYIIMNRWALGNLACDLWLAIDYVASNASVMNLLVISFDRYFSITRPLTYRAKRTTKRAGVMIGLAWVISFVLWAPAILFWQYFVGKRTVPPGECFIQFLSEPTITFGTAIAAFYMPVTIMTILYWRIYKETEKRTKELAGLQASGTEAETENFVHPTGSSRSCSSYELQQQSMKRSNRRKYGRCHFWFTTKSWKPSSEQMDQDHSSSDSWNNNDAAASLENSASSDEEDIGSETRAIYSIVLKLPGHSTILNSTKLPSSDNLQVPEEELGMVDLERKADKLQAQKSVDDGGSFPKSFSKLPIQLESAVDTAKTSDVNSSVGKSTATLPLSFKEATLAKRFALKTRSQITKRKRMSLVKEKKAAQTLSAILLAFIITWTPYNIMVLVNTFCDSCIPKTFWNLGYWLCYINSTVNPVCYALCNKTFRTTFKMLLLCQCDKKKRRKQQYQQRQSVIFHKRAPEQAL
Test [6] has the same target. Description: Logarithm of affinity (log 1/M) at the (N-methyl Scopolamine) NMS-liganded muscarinic acetylcholine receptor M3 by using semiquantitative equilibrium and off-rate assay.
Test [7] shares this target. Description: Logarithm of affinity (log 1/M) at the muscarinic acetylcholine receptor M3 by using semiquantitative equilibrium and off-rate assay.
Test [8] has as its target T3, Muscarinic acetylcholine receptor M2 (Homo sapiens) (UniProt P08172).
T3 sequence (whole entry): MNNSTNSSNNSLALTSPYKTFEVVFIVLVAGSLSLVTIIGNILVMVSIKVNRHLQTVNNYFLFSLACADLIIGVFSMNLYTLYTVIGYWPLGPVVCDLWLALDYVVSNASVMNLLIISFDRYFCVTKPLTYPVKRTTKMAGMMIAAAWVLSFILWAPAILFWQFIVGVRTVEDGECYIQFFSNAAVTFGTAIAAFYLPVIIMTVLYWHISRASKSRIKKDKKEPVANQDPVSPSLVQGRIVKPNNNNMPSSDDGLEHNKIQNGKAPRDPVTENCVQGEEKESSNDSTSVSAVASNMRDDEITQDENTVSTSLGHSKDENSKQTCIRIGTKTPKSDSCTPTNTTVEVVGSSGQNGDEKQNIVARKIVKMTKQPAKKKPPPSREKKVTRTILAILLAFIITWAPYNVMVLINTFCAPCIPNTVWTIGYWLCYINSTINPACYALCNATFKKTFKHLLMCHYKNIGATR
Description: Subtype selectivity and the cooperativity with N-methyl Scopolamine (NMS) at muscarinic M2 receptor; Activity range is 0.81-1.19.

Test [9] addresses T3, Muscarinic acetylcholine receptor M2 (Homo sapiens). Description: Logarithm of affinity (log 1/M) at the (N-methyl Scopolamine) NMS-liganded muscarinic acetylcholine receptor M2 by using semiquantitative equilibrium and off-rate assay.
Test [10] addresses T1, Muscarinic acetylcholine receptor M4 (Homo sapiens). Description: Logarithm of affinity (log 1/M) at the muscarinic acetylcholine receptor M4 by using semiquantitative equilibrium and off-rate assay.
Test [11] has as its target T3, Muscarinic acetylcholine receptor M2 (Homo sapiens). Description: Logarithm of affinity (log 1/M) at the muscarinic acetylcholine receptor M2 by using semiquantitative equilibrium and off-rate assay.
For test [12], the target named is T1, Muscarinic acetylcholine receptor M4 (Homo sapiens). Description: Subtype selectivity and the cooperativity with N-methyl Scopolamine (NMS) at Muscarinic acetylcholine receptor M4; Activity range is 0.2-0.8.
In test [13] the target is T3, Muscarinic acetylcholine receptor M2 (Homo sapiens). Description: Subtype selectivity and the cooperativity with N-methyl Scopolamine (NMS) at Muscarinic acetylcholine receptor M2.
In test [14] the target is T1, Muscarinic acetylcholine receptor M4 (Homo sapiens). Description: Subtype selectivity and the cooperativity with N-methyl Scopolamine (NMS) at Muscarinic acetylcholine receptor M4.
For test [15], the target named is Muscarinic acetylcholine receptor M3 (Homo sapiens) (UniProt P20309). Description: Subtype selectivity and the cooperativity with N-methyl Scopolamine (NMS) at Muscarinic acetylcholine receptor M3; Activity range is 1.2-3.
Test [16] concerns the target T2, Muscarinic acetylcholine receptor M1 (Homo sapiens). Description: Subtype selectivity and the cooperativity with N-methyl Scopolamine (NMS) at Muscarinic acetylcholine receptor M1; Activity range is 1.2-3.
Test [17] deals with T1, Muscarinic acetylcholine receptor M4 (Homo sapiens). Description: Subtype selectivity and the cooperativity with N-methyl Scopolamine (NMS) at Muscarinic acetylcholine receptor M4; activity range is 0.2-0.8.
Test [18] deals with T3, Muscarinic acetylcholine receptor M2 (Homo sapiens). Description: Subtype selectivity and the cooperativity with N-methyl Scopolamine (NMS) at Muscarinic acetylcholine receptor M2,activity range is 1.2-3.
In test [19] the target is Muscarinic acetylcholine receptor M3 (Homo sapiens) (UniProt P20309). Description: Subtype selectivity and the cooperativity with N-methyl Scopolamine (NMS) at Muscarinic acetylcholine receptor M3; activity ranges is 0.2-0.8.
The target in test [20] is T2, Muscarinic acetylcholine receptor M1 (Homo sapiens). Description: Subtype selectivity and the cooperativity with N-methyl Scopolamine (NMS) at Muscarinic acetylcholine receptor M1,activity range is 0.2-0.8.

Take `COC(=O)c1ccc2c(c1)c1c3c(cc4c1n2C(=O)CC4)CNCC3`: the Log 1/M in test [1] is 6; in [3], 6.32; in test [4], 5.62; in test [6] it was 5.09; in test [7], 5.64; in test [9] it was 6.43. For the same molecule, the results for the Log 1/M in test [10] and in test [11] were 5.55 and 6.44, respectively. In addition, the Cooperativity in test [2] was less than 0.2; in [5], 0.8; in test [8] it was 1.19; in test [12], 0.8.
In the case of `COc1cc2c3c4c(cc5c3n(c2cc1OC)C(=O)CC5)CCNC4`, the Log 1/M in test [1] is 6.57; in test [3], 6.19; in test [4], 6.44; in test [6], 5.53; in test [7], 5.19; in [9] it was 6.97. In addition, the Log 1/M in [10] was 5.9; in test [11] it was 6.28. The Cooperativity was more than 3 in [13], more than 3 in test [14], 3 in test [15] and 3 in test [16].
For `O=C1CCc2cc3c(c4c5cc6c(cc5n1c24)OCO6)CCNC3`, the Cooperativity in test [17] turned out to be 0.8; in test [18], 3; in [19] it was 0.8; in [20], 0.8. Besides, the Log 1/M in [1] was 5.73; in [3], 6.06; in test [4], 5.99; in test [6], 5.06; in [7], 5.61; in test [9], 6.31. The Log 1/M in [10] turned out to be 5.29; in test [11] it was 6.18.

(Values after ChEMBL document CHEMBL1135887, “Substituted pentacyclic carbazolones as novel muscarinic allosteric agents: synthesis and structure-affinity and cooperativity relationships” (J Med Chem, 2002).)
